From PubChem BioAssay AID330 (DTP/NCI, 2004)
Toxic doses and inconclusive results are not listed. Rule for the calls: active = survival T/C of 150% or more; inactive = T/C below 125% in these data.

System: P388 leukemia ip, CD2F1 mice, survival T/C
Test: NCI In Vivo Anticancer Drug Screen. Data for tumor model P388 Leukemia (intraperitoneal) in CD2F1 (CDF1) mice
Settings: endpoint: median survival time, higher = longer survival
Outline: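 Mice carrying the transplanted tumor received test compound or vehicle. Survival was recorded in each group, and the value is the treated-group measurement divided by that of the vehicle-treated control group.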

[1] = dose: 60.0 mg/kg/injection, schedule: Q01DX005 (ip), vehicle: saline with Tween-80
[2] = dose: 120.0 mg/kg/injection, schedule: Q01DX005 (ip), vehicle: saline with Tween-80
[3] = dose: 240.0 mg/kg/injection, schedule: Q01DX005 (ip), vehicle: saline with Tween-80
[4] = dose: 100.0 mg/kg/injection, schedule: Q04DX002 (ip), vehicle: saline with Tween-80
[5] = dose: 200.0 mg/kg/injection, schedule: Q04DX002 (ip), vehicle: saline with Tween-80
[6] = dose: 400.0 mg/kg/injection, schedule: Q04DX002 (ip), vehicle: saline with Tween-80
[7] = dose: 50.0 mg/kg/injection, schedule: Q01DX005 (ip), vehicle: saline with Tween-80
[8] = dose: 100.0 mg/kg/injection, schedule: Q01DX005 (ip), vehicle: saline with Tween-80
[9] = dose: 200.0 mg/kg/injection, schedule: Q01DX005 (ip), vehicle: saline with Tween-80

Measured: T/C

CCOc1cccc2c1NC(C)=C(C(=O)c1ccccc1)S2
inactive: [1] 100 % of control | [2] 95 % of control | [3] 91 % of control

CNc1nc(SC)nc2c1ncn2C1CCCO1 (configuration not stated)
inactive: [4] 98 % of control | [5] 95 % of control | [6] 95 % of control

CC(=O)N(c1ccncc1)c1ccc([N+](=O)[O-])cc1
inactive: [1] 94 % of control | [2] 92 % of control | [3] 88 % of control

COC(=O)C12OCC34C(CC5C(C)=C(O)C(=O)CC5(C)C3C(O)C1O)OC(=O)C(OC(=O)N(C)[Si](C)(C)C(C)(C)C)C24 (configuration not stated)
inactive: dose: 125.0 micrograms/kg/injection, schedule: Q01DX005 (ip), vehicle: Klucel (hydroxypropylcellulose) (HPC) 101 % of control | dose: 250.0 micrograms/kg/injection, schedule: Q01DX005 (ip), vehicle: Klucel (hydroxypropylcellulose) (HPC) 95 % of control | dose: 500.0 micrograms/kg/injection, schedule: Q01DX005 (ip), vehicle: Klucel (hydroxypropylcellulose) (HPC) 96 % of control | dose: 1000.0 micrograms/kg/injection, schedule: Q01DX005 (ip), vehicle: Klucel (hydroxypropylcellulose) (HPC) 95 % of control

O=c1[nH]c(=O)c2nc(-c3cccc([N+](=O)[O-])c3)cnc2[nH]1
inactive: dose: 100.0 mg/kg/injection, schedule: Q04DX002 (ip), vehicle: saline 101 % of control | dose: 200.0 mg/kg/injection, schedule: Q04DX002 (ip), vehicle: saline 113 % of control | dose: 400.0 mg/kg/injection, schedule: Q04DX002 (ip), vehicle: saline 106 % of control

c1cc2ccc3ccc(C4CO4)c4ccc(c1)c2c34 (configuration not stated)
inactive: dose: 6.25 mg/kg/injection, schedule: Q01DX009 (ip), vehicle: Klucel (hydroxypropylcellulose) (HPC) 99 % of control | dose: 12.5 mg/kg/injection, schedule: Q01DX009 (ip), vehicle: Klucel (hydroxypropylcellulose) (HPC) 103 % of control | dose: 25.0 mg/kg/injection, schedule: Q01DX009 (ip), vehicle: Klucel (hydroxypropylcellulose) (HPC) 101 % of control

O=C1COC(c2ccccc2O)=NN1CCCN1CCCC1
inactive: dose: 12.5 mg/kg/injection, schedule: Q01DX001 (ip), vehicle: saline 100 % of control | dose: 25.0 mg/kg/injection, schedule: Q01DX001 (ip), vehicle: saline 100 % of control | dose: 50.0 mg/kg/injection, schedule: Q01DX001 (ip), vehicle: saline 107 % of control | dose: 100.0 mg/kg/injection, schedule: Q01DX001 (ip), vehicle: saline 103 % of control

O=C(OCCc1c[nH]c2ccccc12)N(CCCl)CCCl
inactive: dose: 1.56 mg/kg/injection, schedule: Q01DX009 (ip), vehicle: distilled water + Tween-80 101 % of control | dose: 3.12 mg/kg/injection, schedule: Q01DX009 (ip), vehicle: distilled water + Tween-80 103 % of control | dose: 6.25 mg/kg/injection, schedule: Q01DX009 (ip), vehicle: distilled water + Tween-80 105 % of control | dose: 12.5 mg/kg/injection, schedule: Q01DX009 (ip), vehicle: distilled water + Tween-80 109 % of control | dose: 25.0 mg/kg/injection, schedule: Q01DX009 (ip), vehicle: distilled water + Tween-80 111 % of control

O=C1OCCC1C(=O)C(O)(C(F)(F)F)C(F)(F)F (configuration not stated)
inactive: dose: 50.0 mg/kg/injection, schedule: Q01DX001 (ip), vehicle: other 100 % of control | dose: 100.0 mg/kg/injection, schedule: Q01DX001 (ip), vehicle: other 95 % of control | dose: 200.0 mg/kg/injection, schedule: Q01DX001 (ip), vehicle: other 91 % of control

c1ccc2c(c1)CC1OCN3CN(COC4Cc5ccccc5CC43)C1C2 (configuration not stated)
inactive: dose: 50.0 mg/kg/injection, schedule: Q01DX005 (ip), vehicle: saline 114 % of control | dose: 100.0 mg/kg/injection, schedule: Q01DX005 (ip), vehicle: saline 111 % of control | dose: 200.0 mg/kg/injection, schedule: Q01DX005 (ip), vehicle: saline 112 % of control

OC1CCCCCC2CC12 (configuration not stated) (tested in a mixture with another compound)
inactive: dose: 50.0 mg/kg/injection, schedule: Q01DX009 (ip), vehicle: other 102 % of control | dose: 100.0 mg/kg/injection, schedule: Q01DX009 (ip), vehicle: other 103 % of control | dose: 200.0 mg/kg/injection, schedule: Q01DX009 (ip), vehicle: other 96 % of control

NC(COC(=O)c1ccccc1)C(=O)O (configuration not stated)
inactive: [7] 100 % of control | [8] 98 % of control | [9] 93 % of control

O=C1NC(=O)N(/N=C/c2ccc(-c3ccc(Cl)c(Cl)c3)o2)C1O (configuration not stated)
inactive: dose: 50.0 mg/kg/injection, schedule: Q04DX002 (ip), vehicle: saline with Tween-80 100 % of control | [4] 99 % of control | [5] 101 % of control

Oc1c(Cl)cc(Cl)cc1/C=N/NC(=S)Nc1cc(C(F)(F)F)cc(C(F)(F)F)c1
inactive: dose: 12.5 mg/kg/injection, schedule: Q01DX009 (ip), vehicle: olive oil, sesame oil, peanut oil 105 % of control | dose: 25.0 mg/kg/injection, schedule: Q01DX009 (ip), vehicle: olive oil, sesame oil, peanut oil 107 % of control | dose: 50.0 mg/kg/injection, schedule: Q01DX009 (ip), vehicle: olive oil, sesame oil, peanut oil 120 % of control | dose: 50.0 mg/kg/injection, schedule: Q01DX009 (oral), vehicle: saline with Tween-80 92 % of control | dose: 100.0 mg/kg/injection, schedule: Q01DX009 (ip), vehicle: olive oil, sesame oil, peanut oil 86 % of control | dose: 100.0 mg/kg/injection, schedule: Q01DX009 (oral), vehicle: saline with Tween-80 108 % of control | dose: 200.0 mg/kg/injection, schedule: Q01DX009 (oral), vehicle: saline with Tween-80 99 % of control | dose: 400.0 mg/kg/injection, schedule: Q01DX009 (oral), vehicle: saline with Tween-80 90 % of control

C=CC[P+](CC[P+](CC=C)(c1ccccc1)c1ccccc1)(c1ccccc1)c1ccccc1
inactive: dose: 6.25 mg/kg/injection, schedule: Q04DX002 (ip), vehicle: saline 102 % of control | dose: 12.5 mg/kg/injection, schedule: Q04DX002 (ip), vehicle: saline 96 % of control

O=C1CC2C(=O)NC(=O)C2C(=O)N1 (configuration not stated)
inactive: [7] 104 % of control | [8] 101 % of control | [9] 99 % of control

O=C(c1ccccc1)C1COc2ccccc2C1O (configuration not stated)
inactive: [1] 109 % of control | [2] 94 % of control | [3] 94 % of control

Nc1ccc(S(=O)(=O)n2c(=O)oc3ccc(Cl)cc32)cc1
inactive: dose: 50.0 mg/kg/injection, schedule: Q04DX002 (ip), vehicle: Klucel (hydroxypropylcellulose) (HPC) 97 % of control | dose: 100.0 mg/kg/injection, schedule: Q04DX002 (ip), vehicle: Klucel (hydroxypropylcellulose) (HPC) 97 % of control | dose: 200.0 mg/kg/injection, schedule: Q04DX002 (ip), vehicle: Klucel (hydroxypropylcellulose) (HPC) 90 % of control

Cn1cnc([N+](=O)[O-])c1C(=O)O
inactive: dose: 50.0 mg/kg/injection, schedule: Q01DX009 (ip), vehicle: saline 107 % of control | dose: 100.0 mg/kg/injection, schedule: Q01DX009 (ip), vehicle: saline 89 % of control

NC(=S)N/N=C/c1nc2ccccc2c(=O)n1-c1ccc(Cl)cc1
inactive: [4] 104 % of control | [5] 95 % of control | [6] 98 % of control
